Source: ChEMBL document CHEMBL1201862, “PubChem BioAssay data set” (2004)
Activity calls are given as the source filed them.

How the values were obtained:
[1] = molecular target: T1, Eukaryotic translation initiation factor 2-alpha kinase 3 (Homo sapiens, UniProt Q9NZJ5); test: Counterscreen assay for PERK inhibitors: Dose response cell-based high throughput screening assay to measure inhibition of PERK at 6 hours. [Related pubchem assays: 1522, 1416 ]; assay type: functional
T1 sequence (Q9NZJ5 whole entry): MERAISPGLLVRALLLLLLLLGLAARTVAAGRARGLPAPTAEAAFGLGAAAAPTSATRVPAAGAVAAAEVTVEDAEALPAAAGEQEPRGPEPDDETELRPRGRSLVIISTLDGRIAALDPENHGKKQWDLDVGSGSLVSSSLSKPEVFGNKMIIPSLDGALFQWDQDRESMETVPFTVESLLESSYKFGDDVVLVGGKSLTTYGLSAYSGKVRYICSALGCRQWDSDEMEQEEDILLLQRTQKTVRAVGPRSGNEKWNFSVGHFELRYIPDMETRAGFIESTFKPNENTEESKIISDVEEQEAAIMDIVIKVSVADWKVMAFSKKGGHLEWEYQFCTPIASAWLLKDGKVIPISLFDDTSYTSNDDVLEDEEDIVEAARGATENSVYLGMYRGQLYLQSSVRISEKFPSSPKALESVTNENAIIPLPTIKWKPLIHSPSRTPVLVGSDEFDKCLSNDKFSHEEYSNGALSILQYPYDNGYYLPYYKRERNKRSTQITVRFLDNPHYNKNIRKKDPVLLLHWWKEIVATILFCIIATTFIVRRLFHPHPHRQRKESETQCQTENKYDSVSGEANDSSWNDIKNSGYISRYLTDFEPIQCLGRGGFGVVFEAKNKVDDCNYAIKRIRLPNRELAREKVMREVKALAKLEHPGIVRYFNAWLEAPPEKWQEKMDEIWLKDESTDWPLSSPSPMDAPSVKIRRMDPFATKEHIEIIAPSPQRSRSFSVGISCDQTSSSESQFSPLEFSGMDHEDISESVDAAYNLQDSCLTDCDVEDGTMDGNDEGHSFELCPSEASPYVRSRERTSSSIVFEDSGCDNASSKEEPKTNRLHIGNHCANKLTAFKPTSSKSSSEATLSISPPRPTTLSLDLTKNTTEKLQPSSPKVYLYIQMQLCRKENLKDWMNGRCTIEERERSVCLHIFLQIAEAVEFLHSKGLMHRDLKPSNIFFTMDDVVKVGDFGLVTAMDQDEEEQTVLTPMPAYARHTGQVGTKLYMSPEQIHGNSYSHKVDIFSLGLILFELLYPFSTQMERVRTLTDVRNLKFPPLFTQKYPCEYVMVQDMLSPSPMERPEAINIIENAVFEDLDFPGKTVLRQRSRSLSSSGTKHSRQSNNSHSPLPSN

[2] = molecular target: T1, Eukaryotic translation initiation factor 2-alpha kinase 3; test: Dose response cell-based high-throughput screening assay to measure PERK inhibition. [Related pubchem assays: 1416 ]; assay type: functional
HeLa = test: HeLa cell cytotoxicity, dose response, cytotoxicity control for MITF activator project, CellTiter-Glo luminescence, cherry-pick samples (AID 540259); assay type: functional, cell-based; settings: Homo sapiens
[3] = Luminescence Cell-Based Dose Response to Identify Activators of 5'UTR Stem-Loop Driven Prion Protein mRNA Translation in H4-C Neuroglioblastoma Cells. [Related pubchem assays: 1829 (Project Summary), 1814 (Primary HTS)]; assay type: functional
[4] = Luminescence Cell-Based Dose Response HTS to Identify Activators of Luciferase Translation or Activity in H4 […] Cells. [Related pubchem assays: 1829 (Project Summary), 1814 (Primary HTS)]; assay type: functional
H4 = test: Luminescence Cell-Based Dose Response HTS to Identify Activators of 5'UTR Stem-Loop Driven Prion Protein mRNA Translation in H4 Neuroglioblastoma Cells. [Related pubchem assays: 1829 (Project Summary), 1814 (Primary HTS)]; assay type: functional; settings: Homo sapiens
[5] = Luminescence Cell-Based Dose Confirmation to Identify Activators of 5'UTR Stem-Loop Driven Alpha-Synuclein mRNA Translation in H4 Neuroglioblastoma Cells. [Related pubchem assays: 1829 (Project Summary), 1814 (Primary HTS)]; assay type: functional
[6] = Luminescence Cell-Based Dose Confirmation HTS to Identify Activators of 5'UTR Stem-Loop Driven Alpha-Synuclein mRNA Translation in H4 Neuroglioblastoma Cells. [Related pubchem assays: 1829 (Project Summary), 1814 (Primary HTS)]; assay type: functional
[7] = Luminescence Cell-Based Dose Response to Identify Activators of Luciferase Translation or Activity in H4-C Neuroglioblastoma Cells. [Related pubchem assays: 1829 (Project Summary), 1814 (Primary HTS)]; assay type: functional
[8] = cytotoxicity toward NIH3T3 fibroblasts, dose response, counter-screen, cell-based, ATP luminescence, mouse fibroblasts (AID 2010); assay type: functional;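 note: cells exposed to compound for about 90 hours before reading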
Fatty acid synthase [9] = molecular target: T2, Fatty acid synthase (Homo sapiens, UniProt P49327); test: FAS thioesterase domain inhibitors, dose response, biochemical, endpoint fluorescence intensity, uHTS hits (AID 624327); assay type: functional;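 note: fluorescence from hydrolysis of an O-methyl fluorescein acyl ester substrate by the enzyme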
[10] = inhibitors of intracellular T. cruzi replication, confirmation, NIH3T3 host cells, beta-gal luminescence (AID 2044); assay type: functional, cell-based;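 note: intracellular parasites grown in NIH/3T3 mouse fibroblasts as host cells; luminescent beta-galactosidase reporter signal from transgenic T. cruzi replicating inside host cells; inhibitors lower the luminescence signal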
Fatty acid synthase [11] = molecular target: T2, Fatty acid synthase; test: FAS thioesterase domain inhibitors, dose response, biochemical, kinetic fluorescence intensity (AID 624326); assay type: functional;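 note: rate of fluorescence rise from hydrolysis of a fluorogenic O-methyl fluorescein ester substrate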
Albumin = Albumin (Bos taurus, UniProt P02769); test: Counterscreen for inhibitors of T-cell receptor (TCR)-CD3 interaction: Fluorescence-based biochemical high throughput dose response assay to identify inhibitors of T-cell receptor (TCR)-CD3 interaction using a TAMRA-labeled BSA probe.; assay type: functional
[12] = molecular target: Peroxisome proliferator-activated receptor gamma/Nuclear receptor coactivator 1 (Homo sapiens, UniProt P37231); assay type: functional;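 note: agonist potency as compounds enhance coactivator SRC-1 recruitment to PPARgamma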
[13] = molecular target: Peroxisome proliferator-activated receptor gamma/Nuclear receptor coactivator 3 (Homo sapiens, UniProt P37231); assay type: functional;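 note: agonist potency for raising coactivator recruitment to the receptor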
[14] = molecular target: Peroxisome proliferator-activated receptor gamma/Nuclear receptor coactivator 2 (Homo sapiens, UniProt P37231); assay type: functional;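 note: agonist potency for raising coactivator recruitment to the receptor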
INS1 = test: beta cell apoptosis inhibitors, cytokine rescue, dose response, luminescence, retest (AID 449756); assay type: functional, cell-based; settings: Rattus norvegicus;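 note: cell death triggered by IL-1 beta plus TNF-alpha plus IFN-gamma mixture; protective hits raise ATP signal compared with cytokine alone wells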
[15] = cytotoxicity in KRAS-transformed pancreatic duct cells, primary screen, cell-based, fluorescence, HTS (AID 431); assay type: functional; settings: Homo sapiens;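 note: cell line used: HPDE-C7K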
[16] = cytotoxicity in HPDE-C7 cells, cell-based, fluorescence, HTS (AID 430); assay type: functional; settings: Homo sapiens
[17] = molecular target: T3, DNA repair protein RAD52 homolog (Homo sapiens, UniProt P43351); assay type: functional, biochemical
T3 sequence (P43351 whole entry): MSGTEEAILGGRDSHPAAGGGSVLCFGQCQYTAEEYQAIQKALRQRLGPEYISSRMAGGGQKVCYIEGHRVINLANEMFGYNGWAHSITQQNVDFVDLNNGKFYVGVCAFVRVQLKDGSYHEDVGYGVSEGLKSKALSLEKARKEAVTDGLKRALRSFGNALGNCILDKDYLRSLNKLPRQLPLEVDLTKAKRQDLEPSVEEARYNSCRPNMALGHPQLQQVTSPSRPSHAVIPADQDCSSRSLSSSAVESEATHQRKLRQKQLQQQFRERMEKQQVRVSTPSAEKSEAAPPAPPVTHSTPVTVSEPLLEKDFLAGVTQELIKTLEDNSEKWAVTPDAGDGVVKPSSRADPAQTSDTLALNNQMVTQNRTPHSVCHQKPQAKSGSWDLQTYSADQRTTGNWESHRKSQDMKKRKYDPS

[18] = molecular target: T4, COUP transcription factor 2 (Homo sapiens, UniProt P24468); test: Luminescence-based cell-based high throughput dose response assay to identify inhibitors of COUP-TFII (NR2F2).; assay type: functional;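 note: HEK293 cells transiently cotransfected with COUP-TFII expression vector and reporter; luciferase reporter luminescence driven by COUP-TFII from the pX2-168 reporter plasmid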
T4 sequence (P24468 whole entry): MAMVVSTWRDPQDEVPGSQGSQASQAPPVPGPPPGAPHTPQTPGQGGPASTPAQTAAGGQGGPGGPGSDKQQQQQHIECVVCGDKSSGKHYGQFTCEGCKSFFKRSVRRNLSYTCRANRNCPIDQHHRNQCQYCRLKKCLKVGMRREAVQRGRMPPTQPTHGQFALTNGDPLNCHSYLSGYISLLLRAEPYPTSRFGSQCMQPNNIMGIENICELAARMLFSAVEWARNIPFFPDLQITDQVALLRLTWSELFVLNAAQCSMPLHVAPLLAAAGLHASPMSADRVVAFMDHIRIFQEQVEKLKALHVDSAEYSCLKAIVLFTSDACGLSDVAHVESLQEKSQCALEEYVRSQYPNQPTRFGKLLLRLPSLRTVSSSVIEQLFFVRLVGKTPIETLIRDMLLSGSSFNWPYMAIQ

[19] = NIH-3T3 fibroblast cytotoxicity, dose response, cytotoxicity control, cell-based, fluorescence, Alamar Blue, secondary assay (AID 2327); assay type: functional;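 note: NIH-3T3 mouse fibroblasts cultured with fluconazole at 8 µg/mL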
[20] = C. albicans growth with fluconazole, confirmation, fluorescence, retest (AID 2467); assay type: functional, cell-based
[21] = molecular target: T5, Zinc finger protein mex-5 (Caenorhabditis elegans, UniProt Q9XUB2); test: MEX-5/TCR-2 RNA interaction inhibitors, dose response, biochemical, C. elegans, fluorescence polarization (AID 1960)
T5 sequence (Q9XUB2 whole entry): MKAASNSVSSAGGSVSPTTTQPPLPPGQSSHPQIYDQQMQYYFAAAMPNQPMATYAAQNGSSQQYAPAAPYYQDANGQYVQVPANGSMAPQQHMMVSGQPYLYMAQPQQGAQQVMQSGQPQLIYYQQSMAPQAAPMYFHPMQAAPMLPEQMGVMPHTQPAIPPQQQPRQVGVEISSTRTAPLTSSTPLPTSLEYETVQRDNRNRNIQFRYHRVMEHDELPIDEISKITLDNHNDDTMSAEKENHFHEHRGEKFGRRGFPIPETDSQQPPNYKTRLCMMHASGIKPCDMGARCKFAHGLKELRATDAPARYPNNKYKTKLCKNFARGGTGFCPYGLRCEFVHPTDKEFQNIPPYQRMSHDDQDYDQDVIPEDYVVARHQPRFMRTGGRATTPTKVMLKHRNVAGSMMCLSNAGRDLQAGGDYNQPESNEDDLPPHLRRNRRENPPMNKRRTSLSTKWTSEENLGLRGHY

[22] = molecular target: NAD-dependent protein deacylase sirtuin-5, mitochondrial (Homo sapiens, UniProt Q9NXA8); test: SIRT5 desuccinylase inhibitors, dose response, biochemical, fluorescence imaging, cherry-pick, set 5 (AID 720591);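 note: desuccinylation of succinyl peptide AMC substrate read as fluorescence after trypsin release; potency of inhibitors that lower fluorescence and may act on trypsin instead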
[23] = molecular target: T6, RNA-binding protein pos-1 (Caenorhabditis elegans, UniProt G5EF15); test: inhibitors of POS-1/mex-3 RNA binding, dose response, biochemical, fluorescence polarization (AID 1964);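 note: purified POS-1 fused to maltose binding protein made in E. coli; potency of compounds blocking POS-1 binding to fluorescent RNA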
T6 sequence (G5EF15 whole entry): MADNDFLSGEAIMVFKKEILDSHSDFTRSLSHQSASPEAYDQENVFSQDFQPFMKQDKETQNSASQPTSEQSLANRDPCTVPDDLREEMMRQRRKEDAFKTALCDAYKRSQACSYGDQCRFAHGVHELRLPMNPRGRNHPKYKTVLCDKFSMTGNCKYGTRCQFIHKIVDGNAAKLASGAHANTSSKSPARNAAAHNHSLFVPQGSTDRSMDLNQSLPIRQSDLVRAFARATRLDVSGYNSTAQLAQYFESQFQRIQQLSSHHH

T2 sequence (P49327 whole entry, the tested form may be a part): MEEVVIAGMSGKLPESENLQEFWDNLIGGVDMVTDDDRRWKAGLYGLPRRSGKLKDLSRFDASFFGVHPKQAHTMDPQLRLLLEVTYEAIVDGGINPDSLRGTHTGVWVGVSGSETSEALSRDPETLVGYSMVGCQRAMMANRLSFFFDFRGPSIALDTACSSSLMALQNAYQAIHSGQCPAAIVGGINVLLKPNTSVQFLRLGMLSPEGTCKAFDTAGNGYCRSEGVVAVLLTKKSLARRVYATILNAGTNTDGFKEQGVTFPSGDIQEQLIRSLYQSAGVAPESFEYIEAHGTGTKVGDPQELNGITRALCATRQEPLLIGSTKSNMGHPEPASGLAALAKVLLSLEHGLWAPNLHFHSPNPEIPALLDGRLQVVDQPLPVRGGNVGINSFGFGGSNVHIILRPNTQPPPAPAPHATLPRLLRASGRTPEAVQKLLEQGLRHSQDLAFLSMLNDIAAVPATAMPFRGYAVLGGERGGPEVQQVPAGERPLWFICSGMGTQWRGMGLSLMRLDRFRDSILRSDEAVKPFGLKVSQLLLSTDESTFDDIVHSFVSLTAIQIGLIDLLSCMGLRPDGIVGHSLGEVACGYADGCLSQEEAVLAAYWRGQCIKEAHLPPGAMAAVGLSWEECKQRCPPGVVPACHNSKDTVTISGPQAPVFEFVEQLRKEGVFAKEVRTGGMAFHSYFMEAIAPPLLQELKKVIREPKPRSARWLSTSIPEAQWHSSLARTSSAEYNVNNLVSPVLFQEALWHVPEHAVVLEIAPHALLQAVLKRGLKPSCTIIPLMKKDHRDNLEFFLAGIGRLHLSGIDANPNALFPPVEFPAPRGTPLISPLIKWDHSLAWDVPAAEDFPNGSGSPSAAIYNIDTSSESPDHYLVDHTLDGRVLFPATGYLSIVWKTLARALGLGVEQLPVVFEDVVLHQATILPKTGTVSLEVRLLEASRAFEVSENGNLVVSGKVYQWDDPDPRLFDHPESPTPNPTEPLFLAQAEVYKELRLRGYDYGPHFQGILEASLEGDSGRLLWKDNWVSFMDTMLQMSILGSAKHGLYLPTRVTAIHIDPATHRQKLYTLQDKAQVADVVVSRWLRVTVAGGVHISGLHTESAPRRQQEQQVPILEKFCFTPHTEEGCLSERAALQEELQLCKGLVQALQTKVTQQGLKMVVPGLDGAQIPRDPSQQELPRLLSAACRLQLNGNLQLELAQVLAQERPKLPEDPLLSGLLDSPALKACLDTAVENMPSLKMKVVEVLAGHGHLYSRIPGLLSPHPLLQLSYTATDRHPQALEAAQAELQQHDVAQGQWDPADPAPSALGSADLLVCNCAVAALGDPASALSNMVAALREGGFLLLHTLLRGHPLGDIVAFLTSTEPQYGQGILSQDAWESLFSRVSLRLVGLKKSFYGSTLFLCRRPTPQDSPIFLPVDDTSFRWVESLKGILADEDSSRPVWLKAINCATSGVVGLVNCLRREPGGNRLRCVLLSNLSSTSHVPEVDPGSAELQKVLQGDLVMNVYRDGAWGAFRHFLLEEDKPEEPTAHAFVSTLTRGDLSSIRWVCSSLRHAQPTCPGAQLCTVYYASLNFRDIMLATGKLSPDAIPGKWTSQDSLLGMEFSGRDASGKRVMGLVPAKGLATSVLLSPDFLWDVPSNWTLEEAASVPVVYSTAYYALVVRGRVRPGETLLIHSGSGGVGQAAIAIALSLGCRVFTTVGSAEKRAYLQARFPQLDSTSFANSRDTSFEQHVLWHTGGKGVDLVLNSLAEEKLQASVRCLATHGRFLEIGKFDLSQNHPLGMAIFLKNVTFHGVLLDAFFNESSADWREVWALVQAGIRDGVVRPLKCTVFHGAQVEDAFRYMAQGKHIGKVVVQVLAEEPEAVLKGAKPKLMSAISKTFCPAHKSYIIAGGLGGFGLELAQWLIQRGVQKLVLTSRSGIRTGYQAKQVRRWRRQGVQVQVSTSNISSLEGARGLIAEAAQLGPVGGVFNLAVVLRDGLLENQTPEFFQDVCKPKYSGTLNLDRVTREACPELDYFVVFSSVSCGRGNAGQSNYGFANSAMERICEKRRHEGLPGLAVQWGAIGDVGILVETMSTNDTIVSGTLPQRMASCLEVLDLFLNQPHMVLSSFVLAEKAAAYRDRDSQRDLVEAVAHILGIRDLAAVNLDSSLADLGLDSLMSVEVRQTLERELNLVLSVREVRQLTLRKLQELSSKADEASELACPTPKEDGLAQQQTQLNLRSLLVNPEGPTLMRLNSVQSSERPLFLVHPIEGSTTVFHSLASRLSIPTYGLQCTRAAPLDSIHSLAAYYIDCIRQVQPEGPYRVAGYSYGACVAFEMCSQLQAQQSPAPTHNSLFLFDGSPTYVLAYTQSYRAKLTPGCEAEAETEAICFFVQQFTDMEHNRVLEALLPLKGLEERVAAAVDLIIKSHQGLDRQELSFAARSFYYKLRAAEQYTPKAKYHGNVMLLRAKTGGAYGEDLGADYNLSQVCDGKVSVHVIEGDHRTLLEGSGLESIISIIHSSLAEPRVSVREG
Chain of Peroxisome proliferator-activated receptor gamma/Nuclear receptor coactivator 1 (P37231 whole entry): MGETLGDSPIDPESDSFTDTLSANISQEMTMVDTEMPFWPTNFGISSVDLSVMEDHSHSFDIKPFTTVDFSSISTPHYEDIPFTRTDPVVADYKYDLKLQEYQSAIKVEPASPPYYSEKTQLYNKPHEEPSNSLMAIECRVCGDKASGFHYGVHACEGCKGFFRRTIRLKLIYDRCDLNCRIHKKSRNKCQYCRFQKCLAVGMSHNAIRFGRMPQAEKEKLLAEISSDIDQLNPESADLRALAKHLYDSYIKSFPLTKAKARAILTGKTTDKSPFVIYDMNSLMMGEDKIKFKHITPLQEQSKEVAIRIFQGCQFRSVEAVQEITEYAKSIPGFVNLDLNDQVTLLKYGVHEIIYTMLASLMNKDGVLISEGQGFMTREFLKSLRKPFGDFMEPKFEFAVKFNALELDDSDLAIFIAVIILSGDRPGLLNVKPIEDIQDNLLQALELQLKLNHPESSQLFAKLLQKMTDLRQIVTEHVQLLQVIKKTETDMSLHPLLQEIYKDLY
Chain of Peroxisome proliferator-activated receptor gamma/Nuclear receptor coactivator 1 (Q15788 whole entry, further chain): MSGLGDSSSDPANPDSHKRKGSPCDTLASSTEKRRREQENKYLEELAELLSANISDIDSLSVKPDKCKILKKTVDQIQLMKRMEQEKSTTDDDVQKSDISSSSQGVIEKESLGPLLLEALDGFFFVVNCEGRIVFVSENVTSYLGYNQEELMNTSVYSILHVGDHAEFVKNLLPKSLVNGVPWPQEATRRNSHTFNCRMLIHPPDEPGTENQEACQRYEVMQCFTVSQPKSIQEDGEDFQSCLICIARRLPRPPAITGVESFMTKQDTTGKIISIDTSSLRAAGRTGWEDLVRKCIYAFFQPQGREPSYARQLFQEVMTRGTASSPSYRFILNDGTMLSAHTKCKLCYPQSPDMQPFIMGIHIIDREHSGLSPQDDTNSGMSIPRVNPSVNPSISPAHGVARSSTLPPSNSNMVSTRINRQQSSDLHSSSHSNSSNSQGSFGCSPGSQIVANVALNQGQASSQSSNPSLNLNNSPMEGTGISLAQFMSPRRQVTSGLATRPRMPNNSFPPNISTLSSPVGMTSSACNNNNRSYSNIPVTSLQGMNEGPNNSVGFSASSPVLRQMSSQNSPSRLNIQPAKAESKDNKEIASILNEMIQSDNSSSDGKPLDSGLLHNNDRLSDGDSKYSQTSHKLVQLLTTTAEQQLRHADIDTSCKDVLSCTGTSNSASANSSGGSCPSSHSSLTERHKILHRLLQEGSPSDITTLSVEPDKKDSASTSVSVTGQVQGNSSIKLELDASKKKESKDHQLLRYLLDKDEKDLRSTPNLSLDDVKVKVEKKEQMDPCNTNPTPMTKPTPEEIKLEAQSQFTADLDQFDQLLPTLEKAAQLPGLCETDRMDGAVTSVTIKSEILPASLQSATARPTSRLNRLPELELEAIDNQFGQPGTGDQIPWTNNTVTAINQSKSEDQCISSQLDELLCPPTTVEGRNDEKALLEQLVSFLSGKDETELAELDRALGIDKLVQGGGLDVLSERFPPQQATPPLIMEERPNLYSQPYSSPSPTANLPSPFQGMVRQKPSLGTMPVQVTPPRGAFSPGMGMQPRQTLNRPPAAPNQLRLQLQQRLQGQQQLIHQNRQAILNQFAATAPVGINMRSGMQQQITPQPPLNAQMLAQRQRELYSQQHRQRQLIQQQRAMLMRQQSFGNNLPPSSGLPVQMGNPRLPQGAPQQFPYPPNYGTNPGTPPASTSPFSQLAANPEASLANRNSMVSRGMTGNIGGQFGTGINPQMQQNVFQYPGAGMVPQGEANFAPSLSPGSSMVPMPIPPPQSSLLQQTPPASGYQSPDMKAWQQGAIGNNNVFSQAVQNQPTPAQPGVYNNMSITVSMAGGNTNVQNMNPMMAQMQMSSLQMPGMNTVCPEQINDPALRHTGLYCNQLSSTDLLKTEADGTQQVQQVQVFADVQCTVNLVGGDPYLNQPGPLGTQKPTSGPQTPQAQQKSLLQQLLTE
Chain of Albumin (P02769 whole entry): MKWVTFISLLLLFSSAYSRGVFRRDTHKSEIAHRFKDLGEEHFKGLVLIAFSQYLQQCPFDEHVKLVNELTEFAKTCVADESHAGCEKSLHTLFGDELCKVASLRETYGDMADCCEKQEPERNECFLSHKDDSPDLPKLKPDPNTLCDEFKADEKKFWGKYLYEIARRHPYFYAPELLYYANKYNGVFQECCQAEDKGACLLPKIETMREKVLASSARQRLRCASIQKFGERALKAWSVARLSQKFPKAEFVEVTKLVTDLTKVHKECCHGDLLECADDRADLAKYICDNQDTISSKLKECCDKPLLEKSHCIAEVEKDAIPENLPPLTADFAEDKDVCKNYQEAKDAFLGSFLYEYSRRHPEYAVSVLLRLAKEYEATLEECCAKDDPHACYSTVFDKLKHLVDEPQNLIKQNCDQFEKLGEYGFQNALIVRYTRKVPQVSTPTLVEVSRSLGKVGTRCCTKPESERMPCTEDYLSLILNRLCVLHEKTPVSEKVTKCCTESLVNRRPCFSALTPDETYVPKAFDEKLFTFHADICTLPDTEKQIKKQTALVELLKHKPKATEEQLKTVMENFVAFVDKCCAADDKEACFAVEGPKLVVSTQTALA

Structure (SMILES): COc1ccc(C(=O)Cc2ccccc2)cc1OC
- EC50 [1]: > 55.7 µM (not active)
- EC50 [2]: > 55.7 µM (not active)

Structure (SMILES): COc1cccc(N(C(=O)c2nc3nccc(C)n3n2)c2nc3ccccc3s2)c1
- AC50 (HeLa): 43.5 µM (active)
- EC50 [3]: 0.248 µM (active)
- EC50 [4]: 0.192 µM (active)
- EC50 (H4): 0.166 µM (active)
- EC50 [5]: 0.464 µM (active)
- EC50 [6]: 0.122 µM (active)
- EC50 [7]: 0.338 µM (active)

Structure (SMILES): O=C(NCCCCc1ccccc1)c1cc([N+](=O)[O-])cc([N+](=O)[O-])c1
- EC50 [8]: > 60 µM (not active)
- EC50 (cells): 0.258 µM (active)
- IC50 (Fatty acid synthase [9]): 12.4 µM (active)
- EC50 [10]: < 0.1 µM (active)
- IC50 (Fatty acid synthase [11]): 8 µM (active)

Structure (SMILES): CN(C)S(=O)(=O)c1cccc(NC(=O)COC(=O)c2cc(-c3cccc(Br)c3)nc3ccccc23)c1
- IC50 (Albumin): > 94.1 µM (inactive)
- EC50 [12]: 19.1 µM (not active)
- EC50 [13]: 21.1 µM (not active)
- EC50 [14]: 18.1 µM (not active)

Structure (SMILES): Cn1nc([N+](=O)[O-])nc1Sc1cccc2cccnc12
- EC50 [8]: > 60 µM (not active)
- AC50 (INS1): 2.59 µM (active)
- EC50 (cells): 0.115 µM (active)
- EC50 [10]: < 0.1 µM (active)

Structure (SMILES): COc1ccc2c(COC(=O)c3[nH]nc4ccccc34)cc(=O)oc2c1
- EC50 [3]: 0.752 µM (active)
- EC50 [4]: < 0.1 µM (inconclusive)
- EC50 (H4): 0.409 µM (active)
- EC50 [5]: 0.352 µM (active)
- EC50 [7]: 0.684 µM (active)

Structure (SMILES): Cc1nnc(SCC(=O)NC2CCCC2)s1
- EC50 [1]: > 55.7 µM (not active)
- EC50 [2]: > 55.7 µM (not active)

Structure (SMILES): Cc1ccc(OCc2nnc(SCC(=O)c3ccccc3)n2Cc2ccco2)cc1
- EC50 [15]: > 20 µM (not active)
- EC50 [16]: > 20 µM (not active)

Structure (SMILES): CC1=CC(=Cc2sc3ccccc3[n+]2C)C=C(C)O1.[O-][Cl+3]([O-])([O-])[O-]
- EC50 [8]: 32.3 µM (active)
- EC50 (cells): 0.009 µM (active)
- AC50 [17]: 5.78 µM (active)
- EC50 [10]: < 0.1 µM (active)
- IC50 [18]: 8.76 µM (active)
- EC50 [19]: > 160 µM (inactive)
- EC50 [20]: 0.491 µM (active)

Structure (SMILES): COc1ccccc1C(=O)C1CCCN(C(=O)CSc2ccccn2)C1 (stereo unspecified)
- EC50 [12]: > 79.4 µM (not active)
- EC50 [13]: > 79.4 µM (not active)
- EC50 [14]: > 79.4 µM (not active)

Structure (SMILES): O=C(O)c1cc(O)c2c(c1)C(=O)c1cccc(O)c1C2=O [RHEIN]
- EC50 [21]: 21.6 µM (active)
- AC50 [22]: > 30 µM (inactive)
- EC50 [23]: 29.2 µM (active)
- EC50 [15]: 5.19 µM (active)
- EC50 [16]: 19.8 µM (active)
